Where a SMILES comes first, the peptide text is derived from it. Bridges are numbered along the chain shown (N, C = ends). [ ]: non-standard residue; d: D form. Cha = N[C@@H](CC1CCCCC1)C(=O)O; S5 = C=CCCC[C@](C)(N)C(=O)O

One assay concerns the target T1, PAS-B domain of SRC-1 (Homo sapiens, UniProt Q15788).
T1 construct: PAS-B domain of human SRC-1 (residues 257-385) tagged with His6; His6 (cleaved yes); made in house; host or cells: E. coli BL21 (DE3) pLysS
T1 sequence (Q15788 257-385): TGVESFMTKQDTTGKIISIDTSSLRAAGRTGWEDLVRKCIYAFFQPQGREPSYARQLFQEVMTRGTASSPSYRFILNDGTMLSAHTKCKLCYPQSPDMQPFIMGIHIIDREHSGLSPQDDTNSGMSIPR
In words: Competitive fluorescence polarization (FP) assay against fluorescently labeled STAT-6 peptide. It counts as binding. The note with it: STAT-6 peptide 100 nM, PAS-B domain 5 μM. As to the method: An expression plasmid of the PAS-B domain of human SRC-1 (residues 257-385) tagged with His6 was provided by Professor John. A. Robinson. (ChemBioChem 2008, 9, 1318-1322). The plasmid was transformed into BL21 (DE3) pLysS cells, and the protein was cultured in Luria-Bertani broth medium and induced with 0.5 mM IPTG at 18° C. for 16 hours. Cell disruption was performed by ultrasonic treatment in a buffer (50 mM Tris-HCl pH 8.0, 200 mM NaCl and 1 mM TCEP), and insoluble materials were removed by centrifugation. HisTrap™ column (GE Healthcare, 17-5255-01) chromatography was performed on the buffer and 500 mM of imidazole was applied for elution. In order to remove the His6-tag, TEV protease was used and the cleaved samples were loaded in HisTrap™ as described above. […]
A competitive fluorescence polarization (FP) assay was performed to evaluate the binding affinity of ND1-YL2 to the target protein. […] After further incubation for 1 hour, the polarization of fluorescence was measured by a Tecan F200 microplate reader (excitation wavelength: 485 nm; emission wavelength: 535 nm). IC50 values were determined using non-linear regression and fitted with GraphPad Prism® 4 software using the following equation: Y=Bottom+(Top-Bottom)/(1+10^X-LogIC50) (FIG. 11A). […] The binding affinity was calculated as described above (FIG. 11B).
A general note: In fluorescence polarisation assays a small probe gives low polarisation when free and higher when bound to something large.

Another assay deals with T2, SRC-3 (Homo sapiens, UniProt Q9Y6Q9).
T2 construct: endogenous in cells; host or cells: MDA-MB-231
In words: SRC-3 expression level in MDA-MB-231 cells by Western blot. The note with it: 20 μM. It counts as cell-based. The protocol:
It was confirmed whether ND1-YL2 could selectively target and degrade SRC-1 over other SRC family members. Considering the structural similarity between SRC members, it can be predicted that ND1-YL2 will be able to bind to and degrade other members of the SRC family, such as SRC-3. […] To test this, TNBC MDA-MB-231 cells were treated with ND1-YL2 and the amounts of SRC-3 and SRC-1 were confirmed at the cellular level by Western blotting (FIG. 17).

The target in the next assay is SRC-1 (Homo sapiens, UniProt Q15788). In words: SRC-1 expression level in Colo205 cells by Western blot. The class given is cell-based. Further details: endogenous in cells. The conditions noted are these: Colo205 cells expressing very low levels of CRBN, various concentrations. As to the method:
MDA-MB-231 cells were cultured at 37° C. in Dulbecco's modified Eagle's medium (DMEM) supplemented with penicillin-streptomycin containing 10% fetal bovine serum (FBS) and 5% CO2. Colo205 and A549 cells were cultured at 37° C. in Roswell Park Memorial Institute medium supplemented with penicillin-streptomycin with 10% FBS and 5% CO2.
In order to compare the SRC-1 proteolytic activity of ND1-YL2 and CL1-YL2 peptides in cells, A549 cells, which are human lung carcinoma cells, were treated with various concentrations of CL1-YL2, and the effect on SRC-1 degradation was analyzed by Western blot. A549 cells were seeded at 5×10^5 cells per well in a 6-well plate (Corning). Colo205 cells were seeded at 6×10^5 cells per well in a 6-well plate. After incubation at 37° C. for 24 hours, the cells were treated with the synthesized compounds in Opti-MEM medium. The cells were washed twice with cold Dulbecco's phosphate buffered saline (DPBS) prior to cell lysis. In order to lyse the cells, the cells on ice were treated with lysis buffer (50 mM Tris HCl pH 7.4, 150 mM NaCl, 1% TritonX, 1 mM EDTA, 1 mM DTT and 1×protease inhibitor cocktail). The cell lysate was centrifuged at 13,000×rpm for 15 minutes at 4° C. The supernatant was collected and the protein concentration was determined by Pierce™ 660 nm protein assay. […]

SRC-1, sequence (Q15788 whole entry): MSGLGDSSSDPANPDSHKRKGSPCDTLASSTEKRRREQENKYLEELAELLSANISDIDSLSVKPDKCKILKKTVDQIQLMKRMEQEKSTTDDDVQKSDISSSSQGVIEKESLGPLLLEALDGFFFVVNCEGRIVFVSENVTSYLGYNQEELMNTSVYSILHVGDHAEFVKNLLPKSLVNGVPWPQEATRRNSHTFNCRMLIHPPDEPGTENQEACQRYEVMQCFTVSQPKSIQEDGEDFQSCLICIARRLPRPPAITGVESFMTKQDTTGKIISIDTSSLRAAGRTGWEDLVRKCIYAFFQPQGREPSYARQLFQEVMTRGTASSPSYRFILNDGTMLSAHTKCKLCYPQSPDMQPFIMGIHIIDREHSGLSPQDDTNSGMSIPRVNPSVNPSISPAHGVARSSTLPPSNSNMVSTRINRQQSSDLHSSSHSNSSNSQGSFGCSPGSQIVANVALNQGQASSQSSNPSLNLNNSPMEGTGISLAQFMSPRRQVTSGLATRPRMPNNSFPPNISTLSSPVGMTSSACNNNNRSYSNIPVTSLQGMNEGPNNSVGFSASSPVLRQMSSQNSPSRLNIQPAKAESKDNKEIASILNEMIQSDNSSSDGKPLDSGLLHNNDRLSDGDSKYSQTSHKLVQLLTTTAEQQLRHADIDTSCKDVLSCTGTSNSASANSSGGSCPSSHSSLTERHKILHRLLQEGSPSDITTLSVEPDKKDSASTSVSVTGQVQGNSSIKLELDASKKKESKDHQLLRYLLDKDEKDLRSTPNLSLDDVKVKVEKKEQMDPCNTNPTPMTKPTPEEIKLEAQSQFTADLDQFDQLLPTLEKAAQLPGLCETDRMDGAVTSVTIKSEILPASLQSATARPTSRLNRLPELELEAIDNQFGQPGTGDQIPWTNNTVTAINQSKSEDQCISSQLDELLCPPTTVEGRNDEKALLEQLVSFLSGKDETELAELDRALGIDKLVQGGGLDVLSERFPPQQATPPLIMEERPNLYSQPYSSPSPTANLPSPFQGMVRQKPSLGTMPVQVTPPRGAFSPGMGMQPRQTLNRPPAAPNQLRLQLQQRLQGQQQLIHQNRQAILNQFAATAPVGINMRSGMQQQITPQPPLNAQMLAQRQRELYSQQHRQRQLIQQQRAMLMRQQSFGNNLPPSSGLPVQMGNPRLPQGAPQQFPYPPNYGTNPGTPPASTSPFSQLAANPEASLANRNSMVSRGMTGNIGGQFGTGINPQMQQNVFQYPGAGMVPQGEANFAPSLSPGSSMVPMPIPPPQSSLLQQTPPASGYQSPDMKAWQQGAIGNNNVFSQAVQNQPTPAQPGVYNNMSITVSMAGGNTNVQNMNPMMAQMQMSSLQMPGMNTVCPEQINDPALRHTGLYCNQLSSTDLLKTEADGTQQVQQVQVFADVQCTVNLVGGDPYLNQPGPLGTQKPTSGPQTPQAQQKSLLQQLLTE
T2 sequence (Q9Y6Q9 whole entry): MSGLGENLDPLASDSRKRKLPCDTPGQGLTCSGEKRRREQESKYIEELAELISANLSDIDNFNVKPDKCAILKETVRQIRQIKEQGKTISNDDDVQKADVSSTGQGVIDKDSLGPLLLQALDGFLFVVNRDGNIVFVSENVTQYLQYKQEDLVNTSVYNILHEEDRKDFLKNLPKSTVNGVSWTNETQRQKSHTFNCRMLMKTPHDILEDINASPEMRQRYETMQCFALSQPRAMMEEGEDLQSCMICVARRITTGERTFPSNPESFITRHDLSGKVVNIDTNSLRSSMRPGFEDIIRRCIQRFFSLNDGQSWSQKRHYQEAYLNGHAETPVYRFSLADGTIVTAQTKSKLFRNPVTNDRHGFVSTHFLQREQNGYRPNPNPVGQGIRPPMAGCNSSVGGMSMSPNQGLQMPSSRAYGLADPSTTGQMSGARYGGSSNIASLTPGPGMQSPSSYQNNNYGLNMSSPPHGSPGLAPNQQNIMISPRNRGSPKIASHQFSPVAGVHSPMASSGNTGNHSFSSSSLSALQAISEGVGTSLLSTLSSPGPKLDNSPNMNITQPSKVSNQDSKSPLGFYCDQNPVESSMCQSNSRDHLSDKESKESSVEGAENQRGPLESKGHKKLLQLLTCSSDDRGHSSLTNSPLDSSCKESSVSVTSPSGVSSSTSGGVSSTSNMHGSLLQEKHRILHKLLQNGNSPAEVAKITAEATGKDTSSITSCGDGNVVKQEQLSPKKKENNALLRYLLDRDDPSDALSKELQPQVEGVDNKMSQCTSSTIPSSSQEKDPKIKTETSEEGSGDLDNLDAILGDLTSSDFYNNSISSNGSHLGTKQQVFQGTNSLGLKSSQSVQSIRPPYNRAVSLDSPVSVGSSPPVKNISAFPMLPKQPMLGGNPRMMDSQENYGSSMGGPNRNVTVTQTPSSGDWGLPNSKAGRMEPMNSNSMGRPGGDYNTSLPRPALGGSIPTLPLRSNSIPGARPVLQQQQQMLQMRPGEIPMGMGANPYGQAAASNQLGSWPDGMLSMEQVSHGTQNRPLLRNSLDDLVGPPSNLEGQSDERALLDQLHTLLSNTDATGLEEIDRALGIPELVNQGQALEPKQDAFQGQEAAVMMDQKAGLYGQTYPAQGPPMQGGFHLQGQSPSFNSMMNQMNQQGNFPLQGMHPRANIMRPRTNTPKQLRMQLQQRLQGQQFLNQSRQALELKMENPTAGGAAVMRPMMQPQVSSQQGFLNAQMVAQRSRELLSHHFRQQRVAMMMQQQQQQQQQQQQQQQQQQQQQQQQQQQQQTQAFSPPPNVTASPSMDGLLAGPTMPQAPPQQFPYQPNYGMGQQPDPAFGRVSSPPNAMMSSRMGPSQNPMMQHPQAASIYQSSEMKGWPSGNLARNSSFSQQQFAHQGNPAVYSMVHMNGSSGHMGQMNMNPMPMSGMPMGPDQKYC

One may read the Ki as a measure of affinity in units of concentration, obtained from inhibition or displacement. Low readings indicate a stronger hold on the target, high ones a looser hold on the target. Molecule `CC(C)C[C@H](NC(=O)[C@H](C)NC(=O)[C@H](C)NC(=O)[C@H](C)NC(=O)[C@H](C)NC(=O)[C@H](CC(C)C)NC(=O)[C@@H](N)CCCNC(=N)N)C(=O)N[C@@H](CC(C)C)C(=O)N1CCC[C@H]1C(=O)N1CCC[C@H]1C(=O)N[C@H](C(=O)N[C@@H](CCC(=O)O)C(=O)N[C@@H](CCC(N)=O)C(=O)N[C@@H](CC(=O)O)C(=O)N[C@@H](CC(C)C)C(=O)N[C@@]1(C)CCC/C=C\CCC[C@@](C)(C(=O)N[C@@H](Cc2ccc(O)cc2)C(N)=O)NC(=O)[C@H](CC2CCCCC2)NC(=O)[C@H](CC(C)C)NC(=O)[C@H](CCCCN)NC1=O)[C@@H](C)O` [ND1-YL2] (H-RLAAAALLPPTEQDL[S5]KL[Cha][S5]Y-NH2; staple (Z) 16-20) had a Ki on PAS-B domain of SRC-1 of 320 nM. Besides, the “Degradation effect on SRC-3” value at SRC-3 is “no degradation effect was observed”. In addition, on SRC-1, the “Effect on SRC-1 expression level” value is “induced a decrease in the expression level of SRC-1 in a dose-dependent manner”.

For the origin of these results see patent US20230405134A1, “NOVEL PROTAC CHIMERIC COMPOUND, AND PHARMACEUTICAL COMPOSITION COMPRISING SAME FOR PREVENTING, AMELIORATING, OR TREATING DISEASES THROUGH TARGET PROTEIN DEGRADATION” (POSTECH RESEARCH AND BUSINESS DEVELOPMENT FOUNDATION, priority 2020, published 2023).
